Square brackets hold non-standard residues; d marks the D form. Peptide text beside a SMILES is read from it. Nle = CCCC[C@H](N)C(=O)O
Experiments:
[1] = test system: Atg5fl/fl LysM-Cre− and Cre+ bone marrow-derived macrophages (BMM); test: IL-1α release (ELISA) from LPS- and IFN-γ-stimulated bone marrow-derived macrophages; format: cell-based, murine; details: 12 h; for IL-1α secreted: autophagy-competent Atg5fl/fl LysM-Cre− BMM, LPS and IFN-γ stimulated, 50 μg/ml rapamycin, 10 mM 3-MA or 100 nM Bafilomycin A1
Description: FIG. 5. Excess cytokine secretion is a cell-autonomous property of autophagy-deficient macrophages and IL-1α hypersecretion by Atg5^fl/fl LysM-Cre^+ macrophages depends on reactive oxygen intermediates and calpain. (A-C) In vitro cytokine (IL-1α, CXCL1, and IL-12p70) release (ELISA) from LPS- and IFN-γ-stimulated Atg5^fl/fl LysM-Cre^− and Cre^+ bone marrow-derived macrophages (BMM). (D) CXCL1 released from LPS- and IFN-γ-stimulated Atg5^fl/fl LysM-Cre^+ BMM in the absence of presence of IL-1RA ([…]). (E) Fraction of 7-AAD^+ BMM after LPS and IFN-γ stimulation in vitro. (F,G) IL-1α and CXCL1 levels (ELISA) in lung homogenates of uninfected Atg5^fl/fl LysM-Cre^− and Cre^+ mice. (H,I) IL-1α (ELISA) released from LPS- and IFN-γ stimulated Atg5^fl/fl LysM-Cre BMM in the presence of 50 μg/ml rapamycin (Rap), 10 mM 3-MA, or 100 nM Bafilomycin A1 (Baf A1) after 12 h of stimulation. (J) IL-1α secretion during inflammasome activation. Atg5^fl/fl LysM-Cre^− and Cre^+ BMM were pretreated overnight with LPS (100 ng/ml) then stimulated for 1 h in the absence or presence of the inflammasome agonist silica (250 μg/ml) in EBSS. (K) IL-1α secretion in the presence of caspase 1 inhibitor YVAD. Atg5^fl/fl LysM-Cre^− and Cre^+ BMM were pretreated overnight with LPS (100 ng/ml) then stimulated for 1 h in the absence or presence of YVAD (50 μM) during inflammasome activation with silica as in J. (L) Effects of caspase 1 siRNA knockdown (immunoblot, left) on IL-1α release (graph, right) from Atg5^fl/fl LysM-Cre^+ BMM. Graph (center), IL-1α release from LPS-stimulated siRNA-treated Atg5^fl/fl LysM-Cre^+ BMM in full media or EBSS (Starv). Graph (right), same as middle graph in full medium only. Casp 1, caspase 1 siRNA: Scr, scrambled, control siRNA. (M) IL-1α release from LPS- and IFN-γ-stimulated Atg5^fl/fl LysM-Cre^+ BMM knocked down with siRNA for inflammasome components ASC and NLRP3. (N,O) ROS inhibition and IL-1 secretion: IL-1α (N) and IL-1β (0) released (ELISA) from LPS- and IFN-γ-stimulated Atg5^fl/fl LysM-Cre^− and Cre^+ BMM in the absence or presence of ROS antagonist APDC (50 μM) after 12 h of incubation. (P) Calpain and […] hypersecretion phenotype. IL-1β (ELISA) released from LPS- and IFN-γ stimulated Atg5^fl/fl LysM-Cre^− and Cre^+ BMM in the absence or presence of calpain inhibitor ALLN (100 μM) after 12 h of stimulation. Data, mean±SE, *p<0.05, **p<0.01, † p>0.05 (t test; n≥3).
(§1) All cells were pretreated with Stain FcX (anti-CD16/32) (Biolegend) before being stained for. […] Caspase 1 activity was measured by flow cytometry using the FLICA caspase 1 reagent (FAM-YVAD-FMK) (Immunochemistry Technologies). […] Secreted cytokines (IL-1αIL-1β CXCL1, CXCL2 and IL-12p70) were measured by ELISA (R&D Systems). […]

[2] = test system: Atg5fl/fl LysM-Cre− and Cre+ bone marrow-derived macrophages (BMM); test: IL-1β release (ELISA) from LPS- and IFN-γ-stimulated bone marrow-derived macrophages; format: cell-based, murine; details: APDC 50 μM, 12 h
Description: (§2) FIG. 5. Excess cytokine secretion is a cell-autonomous property of autophagy-deficient macrophages and IL-1α hypersecretion by Atg5^fl/fl LysM-Cre^+ macrophages depends on reactive oxygen intermediates and calpain. (A-C) In vitro cytokine (IL-1α, CXCL1, and IL-12p70) release (ELISA) from LPS- and IFN-γ-stimulated Atg5^fl/fl LysM-Cre^− and Cre^+ bone marrow-derived macrophages (BMM). (D) CXCL1 released from LPS- and IFN-γ-stimulated Atg5^fl/fl LysM-Cre^+ BMM in the absence of presence of IL-1RA ([…]). (E) Fraction of 7-AAD^+ BMM after LPS and IFN-γ stimulation in vitro. (F,G) IL-1α and CXCL1 levels (ELISA) in lung homogenates of uninfected Atg5^fl/fl LysM-Cre^− and Cre^+ mice. (H,I) IL-1α (ELISA) released from LPS- and IFN-γ stimulated Atg5^fl/fl LysM-Cre BMM in the presence of 50 μg/ml rapamycin (Rap), 10 mM 3-MA, or 100 nM Bafilomycin A1 (Baf A1) after 12 h of stimulation. (J) IL-1α secretion during inflammasome activation. […]
FIG. 10. […] IL-1β secretion was examined in autophagy-competent Atg5fl/fl LysM-CreBMM and IL-1α secretion was measured in autophagy-deficient Atg5fl/fl LysM-Cre+ BMM. […]
All cells were pretreated with Stain FcX (anti-CD16/32) (Biolegend) before being stained for. […] Caspase 1 activity was measured by flow cytometry using the FLICA caspase 1 reagent (FAM-YVAD-FMK) (Immunochemistry Technologies). […]

TBK-1 = test: IL-1β secretion with pharmacological TBK-1 inhibition (preliminary studies); format: cell-based; details: preliminary studies with TBK-1 inhibitor
BMM = test: HMGB1 extracellular release from BMM (immunoblot of culture supernatants); format: cell-based, murine; details: BMM stimulated with nigericin; largely diminished in Atg5-deficient BMM
Description: We tested whether induction of autophagy affected other proteins not connected to proteolytic processing in the inflammasome, such as HMGB1 (high mobility group box 1 protein). HMGB1 is a major pro-inflammatory alarmin or DAMP (damage-associated molecular pattern) normally present in the nucleus (34A). This chromatin-associated nuclear protein (with additional intracellular and extracellular signaling roles), upon exposure to inputs including those that induce autophagy (63A,64A), undergoes a complex set of biochemical and localization changes. In the process, it first translocates from the nucleus into the cytoplasm and then is released from the cytoplasm to act in tissue remodeling signaling (when acting alone) or as an inflammatory mediator (when combined with bacterial agonists or other alarmins such as IL-1β). […] HMGB1, along with additional unconventional substrates, depends on inflammasome for secretion although the protein itself is not subjected to proteolytic processing by caspase 1 (65A-68A).

Atg5fl/fl LysM-Cre+ BMM = test: CXCL1 release (ELISA) from LPS- and IFN-γ-stimulated Atg5fl/fl LysM-Cre+ BMM; format: cell-based, murine; parameters: dose or concentration left out as unconfirmed; details: IL-1RA
Description: as §2, §1

naïve CD4 T cells = test: Ex vivo Th17 polarization of naïve CD4 T cells (intracellular IL-17A, flow cytometry); format: cell-based, mice; details: 20 ng/ml IL-1α in combination with 5 ng/ml TGF-β and 20 ng/ml IL-6, day 4
Experimental: FIG. 9. T cell activation state and IL-1α role in T cell IL-17 polarization. (A,B) CD44 and CD25 expression on CD4 T cells from lungs of uninfected Atg5fl/fl LysM-Cre and Cre+mice. (C-F) Intracellular IL-17A production (day 4; release blocked with monensin) by naïve CD4 T cells polarized in the presence of cytokine cocktails: 5 ng/ml TGF-β and 20 ng/ml IL-6, plus 20 ng/ml IL-1α or 20 ng/ml IL-1β. Dot plot (panel C), levels of IL-17A in unstimulated cells (starting material). Histograms (D,E), IL-17A in naïve CD4 T cells polarized in the presence of TGF-β, IL-6 and IL-1α (panel D) or TGF-β, IL-6 and IL-1β (panel E). (F) Percent of IL-17A+CD4 T cells under respective polarizing conditions. Data: mean±SE; † p>0.05 (t test; n≥3).
Single cell suspensions from whole lungs isolated from naïve Atg5^fl/fl LysM-Cre^+ and Cre^− mice were cultured in RPMI 10% FBS and Cell Stimulation Cocktail (phorbol 12-myristate 13-acetate and ionomycin plus brefeldin A and monensin; eBioscience) for 4 h and analyzed by flow cytometry. […] After 4 days, cells were stimulated with 1× Cell Stimulation Cocktail in the presence of protein transport inhibitors for 5 hours at 37° C. and analyzed by flow cytometry.

Cn1cnc(N)c2ncnc1-2 [3MA, 3-methyladenine]
IL-1α secreted [1]: significantly increased

CCCC[C@@H](C=O)NC(=O)[C@H](CC(C)C)NC(=O)[C@H](CC(C)C)NC(C)=O [ALLN] (Ac-Leu-Leu-[Nle]-aldehyde)
excess IL-1α production ([1]; LPS- and IFN-γ-stimulated Atg5fl/fl LysM-Cre+ BMM, ALLN 100 μM): completely inhibited the excess IL-1α production

N[C@@]1(C(=O)O)CN[C@@H](C(=O)O)C1 [APDC, (2R,4R)-4-aminopyrrolidine-2,4-dicarboxylate]
excessive IL-1β release [2]: inhibited excessive IL-1β release | excessive IL-1α release ([1]; LPS- and IFN-γ-stimulated Atg5fl/fl LysM-Cre+ BMM, APDC 50 μM): abrogated excessive IL-1α

O=C(NCCCNc1nc(Nc2cccc(NC(=O)N3CCCC3)c2)ncc1I)c1cccs1 [BX795]
IL-1β secretion (TBK-1): reduced

CO/C1=C\C(C)=C\[C@@H](C)[C@@H](O)[C@@H](C)C/C(C)=C/C=C/[C@H](OC)[C@@H]([C@@H](C)[C@@H](O)[C@H](C)[C@@]2(O)C[C@@H](O)[C@H](C)[C@@H](C(C)C)O2)OC1=O [bafilomycin A1]
IL-1α secreted [1]: An effect similar to 3MA

CO[C@@H]1C[C@@H](C[C@H]2CC[C@H](C)[C@H]([C@@H](C)C(=O)O)O2)O[C@]2(O[C@](C)([C@H]3CC[C@@](C)([C@@H]4O[C@@H]([C@H]5O[C@@](O)(CO)[C@H](C)C[C@@H]5C)C[C@@H]4C)O3)C[C@H]2C)[C@@H]1C [nigericin]
HMGB1 in culture supernatants (BMM): An HMGB1 band was detected

IL-1RA: IL-1 receptor antagonist (R&D Systems)
CXCL1 levels (Atg5fl/fl LysM-Cre+ BMM): lowered CXCL1 levels

B1: IL-1α: cytokine (R&D Systems) added at 20 ng/ml for T cell polarization (protein, UniProt P01583 113-271, looked up)
Interleukin-1 alpha: SAPFSFLSNVKYNFMRIIKYEFILNDALNQSIIRANDQYLTAAALHNLDEAVKFDMGAYKSSKDDAKITVILRISKTQLYVTAQDEDQPVLLKEMPEIPKTITGSETNLLFFWETHGTKNYFTSVAHPNLFIATKQDYWVCLAGGPPSITDFQILENQA
Th17 polarization (IL-17A+ CD4 T cells) (naïve CD4 T cells): showed a capacity to promote Th17 polarization
